The text below walks through data of patent publication US20250230193A1, “CYCLIC COMPOUND HAVING SELECTIVE KRAS INHIBITORY EFFECT ON HRAS AND NRAS” (CHUGAI SEIYAKU KABUSHIKI KAISHA, priority 2022, published 2025).

Structures are written as SMILES. Where a SMILES comes first, the peptide text is derived from it. Bridges are numbered along the chain shown (N, C = ends). [ ]: non-standard residue; d: D form. The star is where a group is joined. hPhe(3-Cl-4-CF3) = N[C@@H](CCc1ccc(C(F)(F)F)c(Cl)c1)C(=O)O; NPrPhe(4-CF3) = CCCN[C@@H](Cc1ccc(C(F)(F)F)cc1)C(=O)O; 3Oxa8azabicyclo(3.2.1)octane = C1CC2COCC1N2*; NMeGly(cPent) = CN[C@H](C(=O)O)C1CCCC1; NMeD = CN[C@@H](CC(=O)O)C(=O)O; NMeL = CN[C@@H](CC(C)C)C(=O)O; Azetidin(1-yl) = C1CN(*)C1; Morpholide = C1CN(*)CCO1; Piperidide = C1CCN(*)CC1; Pyrrolidide = C1CCN(*)C1; Ac5c = NC1(C(=O)O)CCCC1; Aze = O=C(O)[C@@H]1CCN1; Sar = CNCC(=O)O

For experiment [1], the target named is GDP-bound HRAS wild-type protein (Homo sapiens, UniProt P01112). Kind of experiment: Binding to HRAS by surface plasmon resonance (SPR), Single Cycle Kinetics. The following applies: KD ratio HRAS/KRAS, SPR. Background: In SPR one partner is held on a chip, and binding of the other changes the refractive index at the surface.
The target in experiment [2] is GDP-bound NRAS wild-type protein (Homo sapiens, UniProt P01111). Kind of experiment: Binding to NRAS by surface plasmon resonance (SPR), Single Cycle Kinetics. The following applies: KD ratio NRAS/KRAS, SPR.
Sequence of GDP-bound NRAS wild-type protein (P01111 whole entry): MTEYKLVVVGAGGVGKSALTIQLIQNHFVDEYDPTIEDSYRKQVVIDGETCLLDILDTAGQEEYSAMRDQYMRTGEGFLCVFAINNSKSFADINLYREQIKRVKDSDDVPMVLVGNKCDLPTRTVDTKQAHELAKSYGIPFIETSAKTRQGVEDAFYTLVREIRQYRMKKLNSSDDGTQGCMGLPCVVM

Sequence of GDP-bound HRAS wild-type protein (P01112 whole entry): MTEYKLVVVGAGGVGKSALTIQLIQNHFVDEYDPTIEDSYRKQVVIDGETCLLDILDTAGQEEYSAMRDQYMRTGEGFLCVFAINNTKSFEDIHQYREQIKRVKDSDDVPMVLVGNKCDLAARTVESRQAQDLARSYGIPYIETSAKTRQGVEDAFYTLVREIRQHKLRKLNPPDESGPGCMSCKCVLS

Turning to `CCCN1C(=O)[C@@H]2CCN2C(=O)CN(C)C(=O)[C@H]([C@@H](C)CC)NC(=O)[C@H](CC(C)C)N(C)C(=O)C[C@@H](C(=O)N2CCOCC2)N(C)C(=O)[C@H](C2CCCC2)N(C)C(=O)C2(CCCC2)NC(=O)[C@@H]2CCCN2C(=O)[C@H](CCc2ccc(C(F)(F)F)c(Cl)c2)NC(=O)CN(C)C(=O)[C@@H]1Cc1ccc(C(F)(F)F)cc1` [PP0156] ([NMeL]I[Sar][Aze][NPrPhe(4-CF3)][Sar][hPhe(3-Cl-4-CF3)]P[Ac5c][NMeGly(cPent)][NMeD]-Morpholide; lactam N-11), in experiment [1], the “HRAS/KRAS (ratio of KD for GDP-bound HRAS wild-type to KD for KRAS)” value was “B (a compound having 3 or more and less than 10 is denoted as B)”. Moreover, in experiment [2], the “NRAS/KRAS (ratio of KD for GDP-bound NRAS wild-type to KD for KRAS)” value was “C (A compound having a KD ratio of 0.1 or more and less than 3 is denoted as C)”.

`CCCN1C(=O)CN(C)C(=O)[C@@H]2CCN2C(=O)[C@H]([C@@H](C)CC)NC(=O)[C@H](CC(C)C)N(C)C(=O)C[C@@H](C(=O)N2CCOCC2)N(C)C(=O)[C@H](C2CCCC2)N(C)C(=O)C2(CCCC2)NC(=O)[C@@H]2CCCN2C(=O)[C@H](CCc2ccc(C(F)(F)F)c(Cl)c2)NC(=O)CN(C)C(=O)[C@@H]1Cc1ccc(C(F)(F)F)cc1` [PP0158] ([NMeL]I[Aze][Sar][NPrPhe(4-CF3)][Sar][hPhe(3-Cl-4-CF3)]P[Ac5c][NMeGly(cPent)][NMeD]-Morpholide; lactam N-11): the “HRAS/KRAS (ratio of KD for GDP-bound HRAS wild-type to KD for KRAS)” value in experiment [1] was “B (a compound having 3 or more and less than 10 is denoted as B)”. Moreover, the “NRAS/KRAS (ratio of KD for GDP-bound NRAS wild-type to KD for KRAS)” value in experiment [2] is “A (a compound having 10 or more and less than 20 is denoted as A)”.

With `CCCN1C(=O)CN(C)C(=O)[C@@H]2CCCN2C(=O)[C@H]([C@@H](C)CC)NC(=O)[C@H](CC(C)C)N(C)C(=O)C[C@@H](C(=O)N2CCOCC2)N(C)C(=O)[C@H](C2CCCC2)N(C)C(=O)C2(CCCC2)NC(=O)[C@@H]2CCCN2C(=O)[C@H](CCc2ccc(C(F)(F)F)c(Cl)c2)NC(=O)CN(C)C(=O)[C@@H]1Cc1ccc(C(F)(F)F)cc1` [PP0165] ([NMeL]IP[Sar][NPrPhe(4-CF3)][Sar][hPhe(3-Cl-4-CF3)]P[Ac5c][NMeGly(cPent)][NMeD]-Morpholide; lactam N-11), the “HRAS/KRAS (ratio of KD for GDP-bound HRAS wild-type to KD for KRAS)” value in experiment [1] was “B (a compound having 3 or more and less than 10 is denoted as B)”. Moreover, the “NRAS/KRAS (ratio of KD for GDP-bound NRAS wild-type to KD for KRAS)” value in experiment [2] is “B (a compound having 3 or more and less than 10 is denoted as B)”.

With `CCCN1C(=O)[C@@H]2CCN2C(=O)[C@@H]2CCN2C(=O)[C@H]([C@@H](C)CC)NC(=O)[C@H](CC(C)C)N(C)C(=O)C[C@@H](C(=O)N2CCOCC2)N(C)C(=O)[C@H](C2CCCC2)N(C)C(=O)C2(CCCC2)NC(=O)[C@@H]2CCCN2C(=O)[C@H](CCc2ccc(C(F)(F)F)c(Cl)c2)NC(=O)CN(C)C(=O)[C@@H]1Cc1ccc(C(F)(F)F)cc1` [PP0168] ([NMeL]I[Aze][Aze][NPrPhe(4-CF3)][Sar][hPhe(3-Cl-4-CF3)]P[Ac5c][NMeGly(cPent)][NMeD]-Morpholide; lactam N-11), the “HRAS/KRAS (ratio of KD for GDP-bound HRAS wild-type to KD for KRAS)” value in experiment [1] is “B (a compound having 3 or more and less than 10 is denoted as B)”. Besides, the “NRAS/KRAS (ratio of KD for GDP-bound NRAS wild-type to KD for KRAS)” value in experiment [2] was “C (A compound having a KD ratio of 0.1 or more and less than 3 is denoted as C)”.

For `CCCN1C(=O)CN(C)C(=O)CN(C)C(=O)[C@H]([C@@H](C)CC)NC(=O)[C@H](CC(C)C)N(C)C(=O)C[C@@H](C(=O)N(C)C)N(C)C(=O)[C@H](C2CCCC2)N(C)C(=O)C2(CCCC2)NC(=O)[C@@H]2CCCN2C(=O)[C@H](CCc2ccc(C(F)(F)F)c(Cl)c2)NC(=O)CN(C)C(=O)[C@@H]1Cc1ccc(C(F)(F)F)cc1` [PP0169] ([NMeL]I[Sar][Sar][NPrPhe(4-CF3)][Sar][hPhe(3-Cl-4-CF3)]P[Ac5c][NMeGly(cPent)][NMeD]-NMe2; lactam N-11), the “HRAS/KRAS (ratio of KD for GDP-bound HRAS wild-type to KD for KRAS)” value in experiment [1] was “B (a compound having 3 or more and less than 10 is denoted as B)”. Moreover, the “NRAS/KRAS (ratio of KD for GDP-bound NRAS wild-type to KD for KRAS)” value in experiment [2] was “B (a compound having 3 or more and less than 10 is denoted as B)”.

Take `CCCN1C(=O)CN(C)C(=O)CN(C)C(=O)[C@H]([C@@H](C)CC)NC(=O)[C@H](CC(C)C)N(C)C(=O)C[C@@H](C(=O)N2CCCC2)N(C)C(=O)[C@H](C2CCCC2)N(C)C(=O)C2(CCCC2)NC(=O)[C@@H]2CCCN2C(=O)[C@H](CCc2ccc(C(F)(F)F)c(Cl)c2)NC(=O)CN(C)C(=O)[C@@H]1Cc1ccc(C(F)(F)F)cc1` [PP0170] ([NMeL]I[Sar][Sar][NPrPhe(4-CF3)][Sar][hPhe(3-Cl-4-CF3)]P[Ac5c][NMeGly(cPent)][NMeD]-Pyrrolidide; lactam N-11): the “HRAS/KRAS (ratio of KD for GDP-bound HRAS wild-type to KD for KRAS)” value in experiment [1] is “B (a compound having 3 or more and less than 10 is denoted as B)”. In addition, the “NRAS/KRAS (ratio of KD for GDP-bound NRAS wild-type to KD for KRAS)” value in experiment [2] was “B (a compound having 3 or more and less than 10 is denoted as B)”.

On to `CCCN1C(=O)CN(C)C(=O)CN(C)C(=O)[C@H]([C@@H](C)CC)NC(=O)[C@H](CC(C)C)N(C)C(=O)C[C@@H](C(=O)N2CCCCC2)N(C)C(=O)[C@H](C2CCCC2)N(C)C(=O)C2(CCCC2)NC(=O)[C@@H]2CCCN2C(=O)[C@H](CCc2ccc(C(F)(F)F)c(Cl)c2)NC(=O)CN(C)C(=O)[C@@H]1Cc1ccc(C(F)(F)F)cc1` [PP0171] ([NMeL]I[Sar][Sar][NPrPhe(4-CF3)][Sar][hPhe(3-Cl-4-CF3)]P[Ac5c][NMeGly(cPent)][NMeD]-Piperidide; lactam N-11), for which the “HRAS/KRAS (ratio of KD for GDP-bound HRAS wild-type to KD for KRAS)” value in experiment [1] was “C (A compound having a KD ratio of 0.1 or more and less than 3 is denoted as C)”. For the same compound, the “NRAS/KRAS (ratio of KD for GDP-bound NRAS wild-type to KD for KRAS)” value in experiment [2] is “B (a compound having 3 or more and less than 10 is denoted as B)”.

With `CCCN1C(=O)CN(C)C(=O)CN(C)C(=O)[C@H]([C@@H](C)CC)NC(=O)[C@H](CC(C)C)N(C)C(=O)C[C@@H](C(=O)N2CCC2)N(C)C(=O)[C@H](C2CCCC2)N(C)C(=O)C2(CCCC2)NC(=O)[C@@H]2CCCN2C(=O)[C@H](CCc2ccc(C(F)(F)F)c(Cl)c2)NC(=O)CN(C)C(=O)[C@@H]1Cc1ccc(C(F)(F)F)cc1` [PP0172] ([NMeL]I[Sar][Sar][NPrPhe(4-CF3)][Sar][hPhe(3-Cl-4-CF3)]P[Ac5c][NMeGly(cPent)][NMeD]-{Azetidin(1-yl)}; lactam N-11), the “HRAS/KRAS (ratio of KD for GDP-bound HRAS wild-type to KD for KRAS)” value in experiment [1] was “C (A compound having a KD ratio of 0.1 or more and less than 3 is denoted as C)”. In experiment [2], the “NRAS/KRAS (ratio of KD for GDP-bound NRAS wild-type to KD for KRAS)” value is “B (a compound having 3 or more and less than 10 is denoted as B)”.

In the case of `CCCN1C(=O)CN(C)C(=O)CN(C)C(=O)[C@H]([C@@H](C)CC)NC(=O)[C@H](CC(C)C)N(C)C(=O)C[C@@H](C(=O)N2C3CCC2COC3)N(C)C(=O)[C@H](C2CCCC2)N(C)C(=O)C2(CCCC2)NC(=O)[C@@H]2CCCN2C(=O)[C@H](CCc2ccc(C(F)(F)F)c(Cl)c2)NC(=O)CN(C)C(=O)[C@@H]1Cc1ccc(C(F)(F)F)cc1` [PP0173] ([NMeL]I[Sar][Sar][NPrPhe(4-CF3)][Sar][hPhe(3-Cl-4-CF3)]P[Ac5c][NMeGly(cPent)][NMeD]-{3Oxa8azabicyclo(3.2.1)octane}; lactam N-11), the “HRAS/KRAS (ratio of KD for GDP-bound HRAS wild-type to KD for KRAS)” value in experiment [1] is “C (A compound having a KD ratio of 0.1 or more and less than 3 is denoted as C)”. In experiment [2], the “NRAS/KRAS (ratio of KD for GDP-bound NRAS wild-type to KD for KRAS)” value is “B (a compound having 3 or more and less than 10 is denoted as B)”.
